Test results: patent publication US11517630B2, “Methods and compositions for regulating gene expression” (Children's Medical Center Corporation, priority 2005, dated 2022)

Tests used:
[1] = system: mutant (TGA-containing) Apo CII-luc fusion reporter in FG293 cells; experiment: In vitro luciferase assay: suppression of translational termination in FG293 cells transduced with mutant Apo CII-luc lentiviral vector; format: cell-based, human; conditions: for fold of induction: 5 μg/ml; for % of wild-type luc activity: 200 μg/ml; for ability to induce luciferase expression (suppression of translation termination codons): 0 to 1000 μg/ml, mutant luc fusion
Method: FG 293 cells were infected with viral supernatants at a multiplicity of infection (MOI) of 10. After 72 hours, cells were then split into six well plates, exposed to various concentrations of G1418 for 48 hours, and lysed. Protein extracts were then assayed for luciferase expression using the Promega Luciferase Assay System.
(§1) To facilitate quantitative measurement of both spontaneous read-through of specific termination codon configurations and the ability of specific antibiotics to suppress translational termination, a luciferase (luc) reporter gene was generated in which the first five codons of either WT mutant MIA-containing) Apo CII sequences were fused to luc coding sequences, and the resulting sequences were introduced into a standard lentiviral vector (FIG. 1B). High-titer virus generated from the vectors was used to infect human FG293 cells at a multiplicity of infection (MOI) of 10, so that virtually 100% of the cells would be stably transduced. Cells were then split into six well plates, exposed to varying concentrations of the aminoglycoside (G418) for 48 hours, and then lysed and assayed for luc expression. […] In contrast, cells transduced by vectors encoding the mutant Apo CII-luc expressed only low levels of luc in the absence of G418 (approximately 1.2% the activity of the wild type), but could be induced to strongly express luc by the addition of the antibiotic (FIG. 2B). […] The efficiency of suppression of translational termination was extremely high (over 70% of the level of wild-type reporter expression observed in the absence of the nonsense codon).
as §1, with “(TGA-containing)” for “MIA-containing)”
One of the expected characteristics of the gene regulation system described here is the ability to rapidly achieve induction of transgene expression, since (as indicated above) transcription is constitutive and therefore induction of gene expression should depend only upon the restoration of fall translation of the transgene coding sequences. To address this issue, we employed the transduced cells described above, and measured the level of reporter activity after G418 administration (200 μg/ml) as a function of time.
Compounds were tested in vitro using stable cell lines generated via the infection of FG293 cells with lentiviral vectors carrying either WT or mutant Apo CII luc sequences. The aminoglycosides were tested over a concentration range from 0 to 1000 μg/ml.

[2] = system: mutant Apo CII-luc in murine lung tissue; experiment: In vivo luc induction in murine lung after intratracheal delivery of lentiviral vector, bioluminescent imaging; conditions: 1.5 mg daily, 4 days, average of five mice
Method: For intratracheal infections, nude mice were anaesthesized and then 100 μl of concentrated virus was delivered upon normal inhalation via a blunt-ended 16-gauge needle inserted in such a way to depress the tongue.
(§2) Prior to imaging, mice were anaesthesized and injected with 150 μl luciferin (30 mg/ml) (Xenagen, Alameda, Calif.). A series of bioluminescent images were then taken for up to 30 minutes using the Xenogen IVIS imager. Photon output was quantified at the plateau of the time-course using the Living Image software. Induction in fold was calculated based on the photon output in the animals before and after drug treatment.
To further establish the general applicability of the gene […] system, we next asked whether gene regulation at the level of translation could be readily accomplished in the in vivo setting. In a first animal model, intratracheal delivery (see Materials and Methods) of a lentiviral vector carrying WT or mutant Apo CII-luc sequences was utilized in order to assess the ability to regulate luc expression in murine lung tissue via aminoglycoside administration. Five days post transduction, prior to administration of aminoglycoside, mice were imaged for luc expression using the Xenogen IVIS non-invasive bioluminescent imager (29). […]

[3] = system: mutant Apo CII-luc in hematopoietic cells; experiment: In vivo luc induction in murine bone marrow transplantation model (transduced hematopoietic stem cells); parameters: species or system mice; conditions: 1.5 mg/day for 3.5 days, four mutant luc animals
Method: Purified HSC were obtained by isolating bone marrow SP cells using fluorescence activated cell sorting after Hoechst staining as previously described (10), with some modifications. Briefly, femurs and tibias from mice were homogenized, and the bone marrow cells were filtered through 70 μm nylon mesh and washed in PBS containing 2% FCS and 0.5% Sodium Azide. Cells were then resuspended in HBSS containing 2% FCS, 10 mM Hepes buffer and antibiotics (all from Gibco, Grand Island, N.Y.) and 8.8 μg/ml Hoechst 33342 (Molecular Probes, Eugene, Oreg.) at a cell concentration of 5×10^6/ml. Following incubation for 90 min at 37° C., cells were washed once and further purified by using a gradient of Ficoll-Paque™ Plus (Amersham Biosciences AB, Uppsala) to remove red blood cells. Purified marrow cells were then sorted using a MoFlo high speed cell sorter (DakoCytomation, Fort Collins, Col.). Except when specified, cells were kept on ice during the entire procedure. […]
as §2, with “A series of bioluminescent images were then taken for up to 30 minutes using the Xenogen IVIS imager.” left out, “treatment. […]” for “treatment.”

[4] = Acute toxicity at concentrations used to regulate gene expression in cell lines and animals
Text: Overall, the system described here represents a remarkably simple means of controlling the expression of genes in mammalian cells that should have immediate experimental applications. While the range of inducibility obtainable with the system (in some cases over 60 fold) is considerably more limited than that of gone regulation systems based on the control of transcription or RNA self-cleavage, the ability to fine-tune the basal and induced levels of gene expression via use of specific termination codons and adjacent sequences may mitigate this limitation in many experimental situations. […] Similarly, others have shown that G418 can be used at relatively non-toxic doses to suppress nonsense mutations in cell lines and in animal models of inherited disease (25, 35). […] The availability of such molecules for experimental studies in the future should further expand the utility of translation-based gene regulation strategies.

[5] = mice; cited from earlier work

CC(C)(C)c1ccc(OCC(=O)Nc2cccc(C(=O)O)c2)cc1 [3-[2-(4-tert-butyl-phenoxyl)-acetylamino]-benzoic acid]
fold of induction ([1]; FG293 cells): about 14%

CCC(C)(C)c1ccc(OCC(=O)Nc2cccc(C(=O)O)c2)cc1 [3-{2-[4-(1,1-dimethyl-propyl)-phenoxyl]acetylamino}-benzoic acid]
fold of induction ([1]; FG293 cells): about 24%

CN[C@@H]1[C@@H](O)[C@@H](O[C@@H]2[C@@H](O)[C@H](O[C@H]3O[C@H]([C@@H](C)O)[C@@H](O)[C@H](O)[C@H]3N)[C@@H](N)C[C@H]2N)OC[C@]1(C)O [G418]
% of wild-type luc activity ([1]; 1 hour post induction): 1.4% | % of wild-type luc activity ([1]; 6 hours post induction): 6.1% | % of wild-type luc activity ([1]; 12 hours post induction): 25.3% | % of wild-type luc activity ([1]; 24 hours post induction): 38.1% | % of wild-type luc activity ([1]; 48 hours post exposure): 51.3% | efficiency of suppression of translational termination, % of wild-type reporter expression ([1]; 300 μg/ml, 48 hours, FG293 cells): over 70% | increase in reporter (luc) expression relative to the uninduced state, maximum induction ([1]; 300 μg/ml, 48 hours, FG293 cells, mutant Apo CII-luc): approximately 60 fold | fold induction at 200 µg/mL ([1]; Homo sapiens, 48 h, read-out: fold induction of luc (maximal induction)): 60 | luciferase expression, % of level in WT luc mice [2]: 27% | induced level, % of expression in WT luc mice [3]: ~51% | fold induction at 1.5 mg ([3]; Mus musculus, Hematopoietic stem cell, 84 h, read-out: average fold induction of luc expression): 65 | acute toxicity at concentrations used [4]: not acutely toxic

NCC[C@H](O)C(=O)N[C@@H]1C[C@H](N)[C@@H](O[C@H]2O[C@H](CN)[C@@H](O)[C@H](O)[C@H]2O)[C@H](O)[C@H]1O[C@H]1O[C@H](CO)[C@@H](O)[C@H](N)[C@H]1O [amakacin]
ability to induce luciferase expression (suppression of translation termination codons) ([1]; 48 hours, FG293 cells): only weak induction

NC[C@@H]1O[C@H](O[C@H]2[C@@H](O)[C@H](O[C@@H]3[C@@H](O)[C@H](N)C[C@H](N)[C@H]3O[C@H]3O[C@H](CO)[C@@H](O)[C@H](O)[C@H]3N)O[C@@H]2CO)[C@H](N)[C@@H](O)[C@@H]1O [paromomycin]
ability to induce luciferase expression (suppression of translation termination codons) ([1]; 48 hours, FG293 cells): only weak induction

NC[C@H]1O[C@H](O[C@H]2[C@H](O)[C@@H](O[C@H]3O[C@H](CO)[C@@H](O)[C@H](N)[C@H]3O)[C@H](N)C[C@@H]2N)[C@H](N)C[C@@H]1O [tobramycin]
ability to induce luciferase expression (suppression of translation termination codons) ([1]; 48 hours, FG293 cells): only weak induction

gentamicin
ability to induce luciferase expression (suppression of translation termination codons) ([1]; 48 hours, FG293 cells): only weak induction

gentamycin sulfate
effective dosage [5]: 17 mg/kg
